Test results published in US10683290B2, “Tricyclic compounds as anticancer agents” (BRISTOL-MYERS SQUIBB COMPANY, priority 2015, dated 2020).

target: BRD4 (Homo sapiens, UniProt O60885); assay: biochemical; assay type: binding; settings: one of the FRET assays described; read-out: FRET BRD4 IC50

| SMILES | IC50 [nM] |
| --- | --- |
| [2H]C([2H])([2H])c1onc(C)c1-c1cc2c(cc1F)c1ncc(C(C)(C)O)cc1n2[C@H](c1ccccc1)C1CCOCC1 [Example 33, 2-{8-Fluoro-7-[5-(^2H3)methyl-3-methyl-1,2-oxazol-4-yl]-5-[(S)-(oxan-4-yl)(phenyl)methyl]-5H-pyrido[3,2-b]indol-3-yl}propan-2-ol] | < 1 |
| Cc1nnn(C)c1-c1cc2c(cc1F)c1ncc(C(C)(C)O)cc1n2C(c1ccc(F)cn1)C1CCOCC1 (single isomer, unassigned) [Example 69, 2-[7-(dimethyl-1H-1,2,3-triazol-5-yl)-8-fluoro-5-[(5-fluoropyridin-2-yl)(oxan-4-yl)methyl]-5H-pyrido[3,2-b]indol-3-yl]propan-2-ol] | < 1500 |
| Cc1ccc2c(n1)c1c(C(N)=O)cc(-c3c(C)noc3C)cc1n2Cc1ccccc1 [Example 1, 5-Benzyl-7-(dimethyl-1,2-oxazol-4-yl)-2-methyl-5H-pyrido[3,2-b]indole-9-carboxamide] | < 1500 |
| Cc1ccc2c(n1)c1ccc(-c3c(C)noc3C)cc1n2Cc1ccccc1 [Example 2, 4-{5-Benzyl-2-methyl-5H-pyrido[3,2-b]indol-7-yl}-3,5-dimethyl-1,2-oxazole] | < 1500 |
| [2H]C([2H])([2H])c1nnn(C)c1-c1cc2c(cc1F)c1ncc(C(C)(C)O)cc1n2C(c1ccccc1)C1COC1 (single isomer, unassigned) [Example 67, 2-{8-fluoro-7-[4-(^2H3)methyl-1-methyl-1H-1,2,3-triazol-5-yl]-5-[oxetan-3-yl(phenyl)methyl]-5H-pyrido[3,2-b]indol-3-yl}propan-2-ol] | < 5 |
| [2H]C([2H])([2H])c1nnn(C)c1-c1cc2c(cc1F)c1ncc(C(C)(C)O)cc1n2C(c1ncccn1)C1CCOCC1 (single isomer, unassigned) [Example 46] | < 5 |
| [2H]C([2H])([2H])c1nnn(C)c1-c1cc2c(cc1Cl)c1ncc(C(C)(C)O)cc1n2C(c1ncccc1F)C1CCOCC1 (single isomer, unassigned) [Example 75, 2-{8-Chloro-5-[(3-fluoropyridin-2-yl)(oxan-4-yl)methyl]-7-[4-(^2H3)methyl-1-methyl-1H-1,2,3-triazol-5-yl]-5H-pyrido[3,2-b]indol-3-yl}propan-2-ol] | < 1500 |
| Cc1nnn(C)c1-c1ccc2c3ncc(S(C)(=O)=O)cc3n([C@H](c3ccccc3)C3CCOCC3)c2c1 [Example 26, 5-{3-Methanesulfonyl-5-[(S)-oxan-4-yl(phenyl)methyl]-5H-pyrido[3,2-b]indol-7-yl}-1,4-dimethyl-1H-1,2,3-triazole] | < 5 |
| [2H]C([2H])([2H])c1nnn(C)c1-c1cc2c(cc1Cl)c1ncc(C(C)(C)O)cc1n2C(c1ccccn1)C1CCOCC1 (single isomer, unassigned) [Example 81, 2-{8-chloro-7-[4-(^2H3)methyl-1-methyl-1H-1,2,3-triazol-5-yl]-5-[oxan-4-yl(pyridin-2-yl)methyl]-5H-pyrido[3,2-b]indol-3-yl}propan-2-ol] | < 1500 |
| Cc1nnn(C)c1-c1cc2c(cc1F)c1ncc(C(C)(O)C3CC3)cc1n2[C@H](c1ccccc1F)C1CCOCC1 (single isomer, unassigned) [Example 24] | < 5 |
| [2H]C([2H])([2H])c1nnn(C)c1-c1cc2c(cc1F)c1ncc(C(C)(C)O)cc1n2C(c1cc(F)ccn1)C1CCOCC1 (racemic) [Example 60, 2-{8-fluoro-5-[(4-fluoropyridin-2-yl)(oxan-4-yl)methyl]-7-[4-(^2H3)methyl-1-methyl-1H-1,2,3-triazol-5-yl]-5H-pyrido[3,2-b]indol-3-yl}propan-2-ol] | < 5 |
| [2H]C([2H])([2H])c1nnn(C)c1-c1cc2c(cc1F)c1ncc(C(C)(C)O)cc1n2C(c1ncccc1OC)C1CCOCC1 (single isomer, unassigned) [Example 41, 2-{8-fluoro-5-[(3-methoxypyridin-2-yl)(oxan-4-yl)methyl}-7-[4-(^2H3)methyl-1-methyl-1H-1,2,3-triazol-5-yl]-5H-pyrido[3,2-b]indol-3-yl]propan-2-ol] | < 5 |
| Cc1nnn(C)c1-c1cc2c(cc1F)c1ncc(S(C)(=O)=O)cc1n2[C@H](c1ccccc1F)C1CCOCC1 [Example 25, 5-{8-Fluoro-5-[(S)-(2-fluorophenyl)(oxan-4-yl)methyl]-3-methanesulfonyl-5H-pyrido[3,2-b]indol-7-yl}-1,4-dimethyl-1H-1,2,3-triazole] | < 1 |
| [2H]C([2H])([2H])c1nnn(C)c1-c1ccc2c3ncc(C(C)(C)O)cc3n(C(c3ncccc3F)C3CCOCC3)c2c1 (single isomer, unassigned) [Example 71, 2-{5-[(3-Fluoropyridin-2-yl)(oxan-4-yl)methyl]-7-[4-(^2H3)methyl-1-methyl-1H-1,2,3-triazol-5-yl]-5H-pyrido[3,2-b]indol-3-yl}propan-2-ol] | < 1 |
| [2H]C([2H])([2H])c1nnn(C)c1-c1cc2c(cc1F)c1ncc(C(C)(C)O)cc1n2C(c1ncccc1F)C1CCOCC1 (centres unmarked) [Example 31, 2-{8-Fluoro-5-[(3-fluoropyridin-2-yl)(oxan-4-yl)methyl]-7-[4-(^2H3)methyl-1-methyl-1H-1,2,3-triazol-5-yl]-5H-pyrido[3,2-b]indol-3-yl}propan-2-ol] | < 5 |
| [2H]C([2H])([2H])c1nnn(C)c1-c1cc2c(cc1F)c1ncc(C(C)(C)O)cc1n2C(c1ccccn1)C1CCOCC1 (single isomer, unassigned) [Example 36, 2-{8-fluoro-7-[4-(^2H3)methyl-1-methyl-1H-1,2,3-triazol-5-yl}-5-[oxan-4-yl(pyridin-2-yl)methyl]-5H-pyrido[3,2-b]indol-3-yl]propan-2-ol] | < 1 |
| Cc1nnn(C)c1-c1ccc2c3ncc(C(C)(C)O)cc3n(C(CCC(F)(F)F)c3ccccn3)c2c1 (single isomer, unassigned) [Example 7, 2-[7-(dimethyl-1H-1,2,3-triazol-5-yl)-5-[4,4,4-trifluoro-1-(pyridin-2-yl)butyl]-5H-pyrido[3,2-b]indol-3-yl]propan-2-ol] | < 5 |
| [2H]C([2H])([2H])c1nnn(C)c1-c1ccc2c3ncc(C(C)(C)O)cc3n(C(c3ncccc3F)C3CCOCC3)c2c1 (single isomer, unassigned) [Example 72, 2-{5-[(3-Fluoropyridin-2-yl)(oxan-4-yl)methyl]-7-[4-(^2H3)methyl-1-methyl-1H-1,2,3-triazol-5-yl]-5H-pyrido[3,2-b]indol-3-yl}propan-2-ol] | < 1 |
| [2H]C([2H])([2H])c1nnn(C)c1-c1cc2c(cc1F)c1ncc(C(C)(C)O)cc1n2[C@H](c1ccccc1)C1CCOCC1 [Example 32, 2-{8-Fluoro-7-[4-(^2H3)methyl-1-methyl-1H-1,2,3-triazol-5-yl]-5-[(S)-(oxan-4-yl)(phenyl)methyl]-5H-pyrido[3,2-b]indol-3-yl}propan-2-ol] | < 1 |
| Cc1nnn(C)c1-c1cc(F)c2c3ncc(C(C)(C)O)cc3n([C@H](c3ccccc3)C3CCOCC3)c2c1 [Example 11, 2-[7-(Dimethyl-1H-1,2,3-triazol-5-yl)-9-fluoro-5-[(S)-oxan-4-yl(phenyl)methyl]-5H-pyrido[3,2-b]indol-3-yl]propan-2-ol] | < 1 |
